Tested on: LacMeta
Settings: pH 4.0, 20 mM sodium citrate, 37 °C; copper-loaded enzyme 0.066 µM; ABTS 0.1-10 mM

Km: 4.22 ± 0.374 mM
SMILES: CCn1c(=NN=c2sc3cc(S(=O)(=O)O)ccc3n2CC)sc2cc(S(=O)(=O)O)ccc21 [ABTS, 2,2′-azino-bis (3-ethylbenzothiazoline-6-sulfonic acid)]

— PMC8943092, “Broad thermal spectrum metagenomic laccase with action for dye decolorization and fentin hydroxide treatment” (AMB Express, 2022)
